From patent publication US20120003661A1, “METHODS AND DEVICES FOR THE SELECTIVE DETECTION OF MICROORGANISMS” (C3 JIAN, INC., priority 2010, published 2012)
“Also recorded” adds a separate entry of the source. Read-outs that look alike come from different tables or passages of the source.

System: bacteria, fungi, and/or yeasts
Type: binding
[1] = microorganism(s) the targeting peptide binds, as listed in Table 2
[2] = microorganism(s) listed as target(s) of the targeting peptide, wrapped target lists given cell by cell
[3] = microorganism(s) that the targeting peptide binds, as listed in Table 2

| Substance | Target(s) [1] | Target(s) [2] | other results |
| --- | --- | --- | --- |
| 1T-133 (YFIKDDNEALSKDWEVIGNDLKGTIDKYGKEFKVR) | A. naeslundii, P. gingivalis, S. epidermidis,; also recorded: S. gordonii, S. mitis,; also recorded: S. mutans, S. oralis, S. salivarious,; also recorded: S. sanguinis |  |  |
| 1T-256 (KGKSLMPLLKQINQWGKLYL) |  | S. sanguinis |  |
| 1T-92 (GQDEGQRRAGVGEGQGVDG) | S. mitis, S. mutans |  |  |
| PF-158 (VRLESRPADLPE) |  | S. epidermidis |  |
| 1T-192 (ILVLLALQVELDSKFQY) | S. sanguinis |  |  |
| PF-124 (MADGQIAAIAKLHGVPVATRNIRHFQSFGVELINPWSG) |  | S. epidermidis, M. luteus, P. mirabilis,; also recorded: E. coli, P. aeruginosa,; also recorded: C. albicans, MRSA, E. faecalis,; also recorded: C. jejuni |  |
| PF-790 (PAGPDHLDQRDHR) |  |  | Target(s) [3]: Mycobacteria spp. |
| 1T-44 (DPALADFAAGMRAQVRT) | S. mutans, S. aureus, S. epidermidis,; also recorded: C. jeikeium, C. striatum,; also recorded: P. aeruginosa |  |  |
| 1T-103 (AQFYEAIITGYALGAGQRIGQL) | A. naeslundii, F. nucleatum, P. gingivalis,; also recorded: S. epidermidis, S. gordonii,; also recorded: S. mitis, S. mutans, S. oralis,; also recorded: S. sanguinis |  |  |
| PF-034 (EPKKKHFPKMESASSEP) |  | M. luteus |  |
| 1T-123 (LVRRNAVAGRSDGLAGAEQLDLVRLQGVL) | S. gordonii |  |  |
| 1T-286 (LGFFNNKADLVKADTERDNRMSSLKIKDL) |  | S. sanguinis |  |
| PF-C057 (YFWWYWVQDCIPYKNNEVWLELSNNMK) |  |  | Target(s) [3]: A. naeslundii, F. nucleatum, P. gingivalis,; also recorded: S. mutans |
| 1T-262 (LSLPLIVLTKSI) |  | A. naeslundii, F. nucleatum, P. gingivalis,; also recorded: S. epidermidis, S. gordonii,; also recorded: S. mitis, S. mutans, S. oralis,; also recorded: S. salivarious, S. sanguinis |  |
| 1T-113 (HGAHQRTGQRLHHHRGRTVSGCRQNPVAGVDPDEHR) | S. mitis |  |  |
| PF-784 (MAMTTVDNIVGLVIAVALMAFLFAALLFPEKF) |  |  | Target(s) [3]: Mycobacteria spp. |
| 1T-151 (SVRAVKPIDEIVAWHFPGDFIVN) | A. naeslundii, F. nucleatum, P. gingivalis,; also recorded: T. denticola, S. gordonii,; also recorded: S. mitis, S. mutans, S. oralis,; also recorded: S. salivarious, S. sanguinis |  |  |
| PF-C120 (ASLSTMTFKVMELKELIILLCGLTMLMIQTEFV) |  |  | Target(s) [3]: A. naeslundii, F. nucleatum, P. gingivalis,; also recorded: S. mutans, T. denticola |
| PF-C064 (DEEALEMGANLYAQFAIDFLNSKK) |  |  | Target(s) [3]: A. naeslundii, F. nucleatum, P. gingivalis,; also recorded: S. mutans, T. denticola |
| 1T-91 (TSVRPGAAGAAVPAGAAGAAGAGWRWP) | S. mitis, S. mutans, S. oralis, S. sanguinis |  |  |
| PF-C034 (HPMPITVRSRKPGPLTAPSEH) |  |  | Target(s) [3]: S. mutans, E. coli |
| 1T-275 (QVLKNFSISRRYKINNPFFKILLFIQLRTL) |  | A. naeslundii, F. nucleatum, P. gingivalis,; also recorded: T. denticola, S. epidermidis,; also recorded: S. gordonii, S. mitis,; also recorded: S. mutans, S. oralis, S. salivarious,; also recorded: S. sanguinis |  |
| 1T-139 (AVAGAAVGALLGNDARSTAVGAAIGGALGAGAGELTKNK) | A. naeslundii, S. gordonii, S. mitis,; also recorded: S. mutans, S. oralis |  |  |
| 1T-159 (IFSLHHFALICSEMGTFAVSKRAKYKWEVL) | P. gingivalis |  |  |
| PF-C139 (LLASHPERLSLGVFFVYRVLHLLLENT) |  |  | Target(s) [3]: A. naeslundii, F. nucleatum, P. gingivalis,; also recorded: S. mutans, T. denticola |
| 1T-42 (TVLDWLSLALATGLFVYLLVALLRADRA) | S. aureus, S. epidermidis, C. xerosis,; also recorded: C. striatum, P. aeruginosa |  |  |

| Substance | Target(s) [1] | Target(s) [2] | other results |
| --- | --- | --- | --- |
| PF-157 (HTAVVWLAGVSGCVALSHCEPA) |  | S. epidermidis, M. luteus, P. mirabilis,; also recorded: E. coli, P. aeruginosa,; also recorded: C. albicans, MRSA, S. pneumoniae,; also recorded: E. faecalis, C. jeikeium,; also recorded: C. jejuni |  |
| 1T-274 (ETTTEINAIKLHRIKQRSPQGTRRVN) |  | F. nucleatum, S. mutans, S. oralis,; also recorded: S. sanguinis |  |
| 1T-193 (LMIFDKHANLKYKYGNRSFGVEAIM) | S. sanguinis |  |  |
| 1T-90 (RNVIGQVL) | S. gordonii, S. mitis, S. mutans,; also recorded: S. oralis, S. sanguinis |  |  |
| 1T-266 (RAGTWLVVDEIR) |  | S. sanguinis |  |
| 1T-184 (ALLVLNLLLMQFFFGKNM) | A. naeslundii, F. nucleatum, P. gingivalis,; also recorded: T. denticola, S. gordonii,; also recorded: S. mitis, S. mutans, S. oralis,; also recorded: S. salivarious, S. sanguinis |  |  |
| PF-038 (MAYKDEGKETKFAVKGYKD) |  | M. luteus |  |
| 1T-201 (KRKHENVIVAEEMRVIKN) | S. sanguinis |  |  |
| 1T-3 (VLGIAGGLDAYGELVGGN) | S. mutans, S. gordonii |  |  |
| PF-040 (MIHLTKQNTMEALHFIKQFYDMFFILNFNV) |  | C. albicans hyphae; also recorded: S. epidermidis, M. luteus, P. mirabilis,; also recorded: E. coli, P. aeruginosa,; also recorded: C. albicans, MRSA, S. pneumoniae,; also recorded: E. faecalis, C. jeikeium,; also recorded: C. jejuni |  |
| PF-788 (GLITVFAGTARILQLRRAAKKTHAAALR) |  |  | Target(s) [3]: Mycobacteria spp. |
| PF-C061 (TLNYKKMFFSVIFLLGLNYLICNSPLFFKQIEF) |  |  | Target(s) [3]: A. naeslundii, F. nucleatum, P. gingivalis,; also recorded: S. mutans, T. denticola |
| 1T-131 (DEVWKMLGI) | A. naeslundii, F. nucleatum, P. gingivalis,; also recorded: T. denticola, S. gordonii,; also recorded: S. mitis, S. mutans, S. oralis,; also recorded: S. salivarious, S. sanguinis |  |  |
| 1T-217 (MLSNVLSRSVVSPNVDIPNSMVILSPLLISISNYH) | F. nucleatum, S. sanguinis |  |  |
| 1T-172 (FEGLKNLLGDDII) | A. naeslundii, F. nucleatum, P. gingivalis,; also recorded: S. epidermidis, S. gordonii,; also recorded: S. mitis, S. mutans, S. oralis,; also recorded: S. salivarious, S. sanguinis |  |  |
| 1T-121 (FAKETGFGIGGAQEGWWIIADIYGPNPF) | S. gordonii, S. mitis, S. mutans,; also recorded: S. oralis, S. salivarious, S. sanguinis |  |  |
| 1T-146 (RNSADNQTKIDKIRIDISLWDEHLNIVKQGK) | A. naeslundii, F. nucleatum, P. gingivalis,; also recorded: T. denticola, S. gordonii,; also recorded: S. mitis, S. mutans, S. oralis,; also recorded: S. salivarious, S. sanguinis |  |  |
| PF-049 (AYYLKRREEKGK) |  | S. epidermidis, MRSA, C. jeikeium,; also recorded: C. jejuni |  |
| 1T-161 (NKVLQVEVMWDGSVVGRPAGVISIKSSKKG) | A. naeslundii, F. nucleatum, P. gingivalis,; also recorded: S. epidermidis, S. gordonii,; also recorded: S. mitis, S. mutans, S. oralis,; also recorded: S. salivarious, S. sanguinis |  |  |
| 1T-31 (NATGTDIGEVTLTLGRFS) | S. mutans, P. aeruginosa |  |  |
| PF-033 (MFIFKTTSKSHFHNNVKSLECIKIPINKNR) |  | S. epidermidis, M. luteus, E. coli,; also recorded: P. aeruginosa, C. albicans,; also recorded: MRSA, S. pneumoniae |  |
| 1T-296 (EYSQQSFKAKPCSERGVLSP) |  | A. naeslundii, F. nucleatum, P. gingivalis,; also recorded: S. gordonii, S. mitis,; also recorded: S. mutans, S. oralis, S. salivarious,; also recorded: S. sanguinis |  |
| 1T-56 (LALIGAGIWMIRKG) | C. xerosis, P. aeruginosa |  |  |
| 1T-300 (PLIISKAQIKMSGDILGSCFKLFYLRPFF) |  | S. salivarious, S. sanguinis; also recorded: A. naeslundii, F. nucleatum, P. gingivalis,; also recorded: S. epidermidis, S. gordonii,; also recorded: S. mitis, S. mutans, S. oralis, |  |
| PF-C194 (NTNDLLQAFELMGLGMAGVFIVLGILYIVAELLIKIFPVNN) |  |  | Target(s) [3]: A. naeslundii, F. nucleatum, P. gingivalis,; also recorded: S. mutans, T. denticola |
